For one experiment, the system named is HBsAg. Put plainly: HBsAg assay (chemiluminescence immunoassay of secreted HBsAg in HepG2.2.15 culture supernatant). The experiment is classed as cell-based, HBV. Conditions: HepG2.2.15 cells, CLIA kit. The gist of the method:
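HepG2.2.15 cells, which constitutively express HBV, were seeded in duplicate and treated with three-fold serial compound dilutions at 1% DMSO final. Secreted HBsAg in culture supernatant was measured semi-quantitatively by chemiluminescence immunoassay. IC50 was extrapolated from dose-response curves.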

A further experiment has as its system HBV DNA. Description: HBV DNA assay (real-time qPCR/TaqMan of extracellular HBV DNA copy number, HepG2.2.15 cells). The experiment is classed as cell-based. As to conditions: Hepatitis B virus, HepG2.2.15, 144 h, Anti HBV DNA production activity in HepG2.2.15 cells; supernatant collected six days after initial administration. The protocol: HepG2.2.15 cells (Acs et al. Proc Natl Acad Sci USA, 84, (1987), 4641-4), a constitutively HBV-expressing cell line were cultured in DMEM+Glutamax-I medium (Invitrogen, Carlsbad, Calif., USA), supplemented with 10% fetal bovine serum (Invitrogen) and G418 (Invitrogen) at a final concentration of 200 mg/L and maintained in 5% CO2 at 37° C.
The assay employs real-time qPCR (TaqMan) to directly measure extracellular HBV DNA copy number. HepG2.2.15 cells were plated in 96-well microtiter plates. Only the interior wells were utilized to reduce “edge effects” observed during cell culture, the exterior wells were filled with complete medium to help minimize sample evaporation. On the following day, the HepG2.2.15 cells were washed and the medium was replaced with complete medium containing various concentrations of a test compound in triplicate. 3TC was used as the positive control, while media alone was added to cells as a negative control (virus control, VC). Three days later, the culture medium was replaced with fresh medium containing the appropriately diluted drug. Six days following the initial administration of the test compound, the cell culture supernatant was collected, treated with pronase and then used in a real-time qPCR/TaqMan assay to determine HBV DNA copy numbers. Antiviral activity was calculated from the reduction in HBV DNA levels (IC50).
The compounds of the present invention were tested for their capacity to inhibit HBV DNA as described herein.
In general terms: In qPCR the cycle at which signal appears reflects the starting amount.

The mark [1] stands for this setting: HBsAg secretion reduced by 50% vs no drug control.

This is an account of results in patent US9458153B2, “Dihydroquinolizinones for the treatment and prophylaxis of hepatitis B virus infection” (Hoffmann-La Roche Inc., priority 2014, dated 2016).

As a reminder, the IC50 is the concentration needed to halve the response being measured. Low readings indicate inhibition by little substance, high ones a need for much substance.

For `COCCOc1cc2c(cc1Cl)-c1cc(=O)c(C(=O)O)cn1C(C(C)C)C2` (single isomer, unassigned; (+)) [Example 108, (+)-10-chloro-6-isopropyl-9-(2-methoxyethoxy)-2-oxo-6,7-dihydrobenzo[a]quinolizine-3-carboxylic acid], the IC50 with HBsAg (setting [1]) turned out to be 3 nM; in the experiment with HBV DNA, 2 nM.

`COCCCOc1cc2c(cc1Cl)-c1cc(=O)c(C(=O)O)cn1C(C(C)C)C2` (single isomer, unassigned; (+)) [Example 121, (+)-10-chloro-6-isopropyl-9-(3-methoxypropoxy)-2-oxo-6,7-dihydrobenzo[a]quinolizine-3-carboxylic acid]: the IC50 was 2 nM with HBsAg (setting [1]) and less than 0.1 nM in the experiment on HBV DNA.

As for `COCCCOc1cc2c(cc1OC)-c1cc(=O)c(C(=O)O)cn1C(C(C)C)C2` (single isomer, unassigned; (+)) [Example 124, (+)-10-methoxy-6-isopropyl-9-(3-methoxypropoxy)-2-oxo-6,7-dihydrobenzo[a]quinolizine-3-carboxylic acid], the IC50 with HBsAg (setting [1]) was 2 nM; in the experiment on HBV DNA, less than 0.1 nM.

For `COc1cc2c(cc1OCCN1CCOCC1)CC(C(C)(C)C)n1cc(C(=O)O)c(=O)cc1-2` (single isomer, unassigned; (+)) [Example 190, (+)-6-tert-butyl-10-methoxy-9-(2-morpholinoethoxy)-2-oxo-6,7-dihydrobenzo[a]quinolizine-3-carboxylic acid], the IC50 is 6 nM in the experiment on HBsAg (setting [1]) and 2 nM in the experiment on HBV DNA.

With `COCCCOc1cc2c(cc1Cl)-c1cc(=O)c(C(=O)O)cn1C(C1(C)CC1)C2` (single isomer, unassigned; (+)) [Example 206, (+)-10-chloro-9-(3-methoxypropoxy)-6-(1-methylcyclopropyl)-2-oxo-6,7-dihydrobenzo[a]quinolizine-3-carboxylic acid], the figures for the IC50 in the experiment with HBsAg (setting [1]) and with HBV DNA were 1 nM and 0.1 nM, respectively.

On to `COCCCOc1cc2c(cc1OC)-c1cc(=O)c(C(=O)O)cn1C(C1(C)CC1)C2` (single isomer, unassigned; (+)) [Example 209, (+)-10-methoxy-9-(3-methoxypropoxy)-6-(1-methylcyclopropyl)-2-oxo-6,7-dihydrobenzo[a]quinolizine-3-carboxylic acid], for which the IC50 came out at 1 nM in the experiment with HBsAg (setting [1]) and 0.3 nM in the experiment with HBV DNA.

For `CCOc1cc2c(cc1Cl)-c1cc(=O)c(C(=O)O)cn1C(CC)C2` (single isomer, unassigned; (-)) [Example 119, (−)-10-chloro-9-ethoxy-6-ethyl-2-oxo-6,7-dihydrobenzo[a]quinolizine-3-carboxylic acid], the IC50 in the experiment with HBsAg (setting [1]) was 330 nM; in the experiment on HBV DNA, 2 nM.

Turning to `CCOc1cc2c(cc1OCC)-c1cc(=O)c(C(=O)O)cn1C(CC)C2` (stereo not shown) [Example 5, 9,10-diethoxy-6-ethyl-2-oxo-6,7-dihydrobenzo[a]quinolizine-3-carboxylic acid], the IC50 with HBsAg (setting [1]) is 18 nM; in the experiment on HBV DNA, 9 nM.

Regarding `CCC1Cc2cc(OCC3CC3)c(OC)cc2-c2cc(=O)c(C(=O)O)cn21` (stereo not shown) [Example 30, 9-(cyclopropylmethoxy)-6-ethyl-10-methoxy-2-oxo-6,7-dihydrobenzo[a]quinolizine-3-carboxylic acid], the IC50 with HBsAg (setting [1]) stood at 24 nM; in the experiment with HBV DNA, 2 nM.

`CCC1Cc2cc(OCC(C)C)c(OC)cc2-c2cc(=O)c(C(=O)O)cn21` (stereo not shown) [Example 33, 6-ethyl-9-isobutoxy-10-methoxy-2-oxo-6,7-dihydrobenzo[a]quinolizine-3-carboxylic acid]: the IC50 in the experiment on HBsAg (setting [1]) turned out to be 8 nM; in the experiment with HBV DNA, 3 nM.

Consider `CCOc1cc2c(cc1OCC)-c1cc(=O)c(C(=O)O)cn1CC2` [Example 76, 9,10-diethoxy-2-oxo-6,7-dihydrobenzo[a]quinolizine-3-carboxylic acid], for which the IC50 with HBsAg (Hepatitis B virus, HepG2.2.15, HBsAg secretion reduced by 50% vs no drug control) worked out at 350 nM; in the experiment with HBV DNA, 130 nM.
